Where a name gives a salt, the structure may show the parent alone.
Columns and labels:
human FGFR-3 = human FGFR-3 (Homo sapiens (Human), UniProt P22607); experiment: FGFR-3 kinase assay (TR-FRET); assay type: biochemical; conditions: 10 μM ATP
human FGFR-1 = human FGFR-1 (Homo sapiens, UniProt P11362); experiment: FGFR-1 high ATP kinase assay (TR-FRET); assay type: biochemical; conditions: 2 mM ATP; 15 min pre-incubation with enzyme; compounds of the invention
[1] = 15 min pre-incubation with enzyme, compounds of the invention
[2] = 15 min pre-incubation with enzyme, compounds of the invention, dihydrochloride
[3] = comparative prior art compounds, labels are Example No. in WO 2007/061737

Sequence of human FGFR-1 (P11362 22-822 limits assumed): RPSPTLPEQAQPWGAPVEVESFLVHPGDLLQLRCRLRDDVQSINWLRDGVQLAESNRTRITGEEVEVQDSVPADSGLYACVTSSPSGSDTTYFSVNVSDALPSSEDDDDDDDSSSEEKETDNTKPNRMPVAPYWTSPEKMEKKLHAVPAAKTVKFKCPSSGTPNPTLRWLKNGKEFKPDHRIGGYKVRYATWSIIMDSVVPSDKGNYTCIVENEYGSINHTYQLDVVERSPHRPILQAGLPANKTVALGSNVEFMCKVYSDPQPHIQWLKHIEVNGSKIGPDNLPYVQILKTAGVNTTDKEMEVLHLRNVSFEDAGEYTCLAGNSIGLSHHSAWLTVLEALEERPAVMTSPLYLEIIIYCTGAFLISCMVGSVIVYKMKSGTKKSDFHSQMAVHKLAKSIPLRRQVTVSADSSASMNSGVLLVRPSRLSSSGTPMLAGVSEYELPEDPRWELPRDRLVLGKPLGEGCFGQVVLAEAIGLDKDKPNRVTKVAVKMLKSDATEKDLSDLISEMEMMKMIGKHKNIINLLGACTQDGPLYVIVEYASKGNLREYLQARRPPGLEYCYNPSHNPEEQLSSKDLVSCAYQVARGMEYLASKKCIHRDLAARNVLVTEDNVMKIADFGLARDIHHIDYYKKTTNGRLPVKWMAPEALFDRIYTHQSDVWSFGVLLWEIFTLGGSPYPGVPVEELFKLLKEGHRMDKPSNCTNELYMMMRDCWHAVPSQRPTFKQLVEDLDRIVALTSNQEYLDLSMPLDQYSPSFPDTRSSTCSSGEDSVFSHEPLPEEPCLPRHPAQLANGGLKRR
Sequence of human FGFR-3 (P22607 397-806): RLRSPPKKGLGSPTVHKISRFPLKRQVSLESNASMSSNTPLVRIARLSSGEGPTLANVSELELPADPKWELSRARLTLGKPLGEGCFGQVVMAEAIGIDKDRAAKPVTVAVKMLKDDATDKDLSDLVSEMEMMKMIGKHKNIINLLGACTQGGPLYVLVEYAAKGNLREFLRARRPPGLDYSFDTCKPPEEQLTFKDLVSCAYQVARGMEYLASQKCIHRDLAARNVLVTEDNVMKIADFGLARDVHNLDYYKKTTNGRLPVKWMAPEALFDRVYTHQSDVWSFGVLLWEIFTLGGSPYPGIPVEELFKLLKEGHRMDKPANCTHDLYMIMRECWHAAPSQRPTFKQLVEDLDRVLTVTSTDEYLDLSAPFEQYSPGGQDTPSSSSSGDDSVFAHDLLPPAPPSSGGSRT

Structure (SMILES)	IC50 (human FGFR-3; [1])	IC50 (human FGFR-1)	IC50 (human FGFR-3; [2])	IC50 (human FGFR-3; [3])
COc1cc(C)cc2cc(-c3c(CN[C@H]4CCNC4=O)c(CN4CCOCC4)n4ncnc(N)c34)sc12 [Example 51, (3S)-3-({[4-Amino-5-(7-methoxy-5-methyl-1-benzothiophen-2-yl)-7-(morpholin-4-ylmethyl)pyrrolo[2,1-f][1,2,4]triazin-6-yl]methyl}amino)pyrrolidin-2-one]	3.9 nM	4.4 nM		
COc1cc(C)cc2cc(-c3c(COCCO)c(CN4CCNC(=O)C4)n4ncnc(N)c34)sc12 [Example 21, 4-({4-Amino-6-[(2-hydroxyethoxy)methyl]-5-(7-methoxy-5-methyl-1-benzothiophen-2-yl)pyrrolo-[2,1-f][1,2,4]triazin-7-yl}methyl)piperazin-2-one formiate]	13 nM	4.2 nM		
COc1cc(C)cc2cc(-c3c(CN4CCNC(=O)C4)c(CN4CCOCC4)n4ncnc(N)c34)sc12 [Example 52, 4-{[4-Amino-5-(7-methoxy-5-methyl-1-benzothiophen-2-yl)-7-(morpholin-4-ylmethyl)pyrrolo-[2,1-f][1,2,4]triazin-6-yl]methyl}piperazin-2-one]	7 nM	9.7 nM		
COCc1c(-c2cc3cc(C)cc(OC)c3s2)c2c(N)ncnn2c1CN[C@@H]1CCNC1=O [Example 3, (3R)-3-({[4-Amino-6-(methoxymethyl)-5-(7-methoxy-5-methyl-1-benzothiophen-2-yl)pyrrolo-[2,1-f][1,2,4]triazin-7-yl]methyl}amino)pyrrolidin-2-one dihydrochloride]			46.6 nM	
CCOCc1c(-c2cc3cc(C)cc(OC)c3s2)c2c(N)ncnn2c1CN1CCNC(=O)C1 [Example 5, 4-{[4-Amino-6-(ethoxymethyl)-5-(7-methoxy-5-methyl-1-benzothiophen-2-yl)pyrrolo[2,1-f]-[1,2,4]triazin-7-yl]methyl}piperazin-2-one]	12.1 nM			
COc1cc(C)cc2cc(-c3c(COC4CCC4)c(CN4CCNCC4)n4ncnc(N)c34)sc12 [Example 26, 6-[(Cyclobutyloxy)methyl]-5-(7-methoxy-5-methyl-1-benzothiophen-2-yl)-7-(piperazin-1-ylmethyl)pyrrolo[2,1-f][1,2,4]triazin-4-amine]	4.9 nM	0.9 nM		
COc1cc(C)cc2cc(-c3c(CNC4CCC4)c(CN4CCNCC4)n4ncnc(N)c34)sc12 [Example 44, 6-[(Cyclobutylamino)methyl]-5-(7-methoxy-5-methyl-1-benzothiophen-2-yl)-7-(piperazin-1-ylmethyl)pyrrolo[2,1-f][1,2,4]triazin-4-amine trihydrochloride]	6.1 nM			
CCOCc1c(-c2cc3cc(C)cc(OC)c3s2)c2c(N)ncnn2c1CN1CCN(C(C)=O)CC1 [Example 20, 1-(4-{[4-Amino-6-(ethoxymethyl)-5-(7-methoxy-5-methyl-1-benzothiophen-2-yl)pyrrolo[2,1-f]-[1,2,4]triazin-7-yl]methyl}piperazin-1-yl)ethanone]	26.1 nM	25 nM		
Cc1c(-c2nc(C3CCC3)n3ccnc(N)c23)sc2ccccc12 [Example 210 in WO 2007/061737, reference compound]				554 nM
COc1cc(C)cc2cc(-c3c(COc4ccccc4)c(CN4CCNCC4)n4ncnc(N)c34)sc12 [Example 35, 5-(7-Methoxy-5-methyl-1-benzothiophen-2-yl)-6-(phenoxymethyl)-7-(piperazin-1-ylmethyl)pyrrolo[2,1-f][1,2,4]triazin-4-amine bis(formiate)]	65.4 nM	61.3 nM		
COC(=O)c1c(-c2cc3cc(C)cc(OC)c3s2)c2c(N)ncnn2c1C(=O)N1CCNCC1 [Example 60, Methyl 4-amino-5-(7-methoxy-5-methyl-1-benzothiophen-2-yl)-7-(piperazin-1-ylcarbonyl)pyrrolo-[2,1-f][1,2,4]triazine-6-carboxylate bis(formiate)]	77.9 nM	16.2 nM		
COc1cc(C)cc2cc(-c3c(CN4CCNC(=O)C4)c(CN4CCN(C(C)=O)CC4)n4ncnc(N)c34)sc12 [Example 59, 4-({7-[(4-Acetylpiperazin-1-yl)methyl]-4-amino-5-(7-methoxy-5-methyl-1-benzothiophen-2-yl)pyrrolo[2,1-f][1,2,4]triazin-6-yl}methyl)piperazin-2-one]	6.8 nM	3.8 nM		
COc1cc(C)cc2cc(-c3c(COCC(N)=O)c(CN4CCN(C(C)=O)CC4)n4ncnc(N)c34)sc12 [Example 34, 2-({7-[(4-Acetylpiperazin-1-yl)methyl]-4-amino-5-(7-methoxy-5-methyl-1-benzothiophen-2-yl)pyrrolo[2,1-f][1,2,4]triazin-6-yl}methoxy)acetamide]	10.5 nM	6 nM		
Nc1nccn2c(C3CCC3)nc(-c3cc4cccc(Cl)c4s3)c12 [Example 233 in WO 2007/061737, reference compound]				10000 nM
COCc1c(-c2cc3cc(C)cc(OC)c3s2)c2c(N)ncnn2c1CN[C@@H]1CCNC1=O [Example 4, (3R)-3-({[4-Amino-6-(methoxymethyl)-5-(7-methoxy-5-methyl-1-benzothiophen-2-yl)pyrrolo-[2,1-f][1,2,4]triazin-7-yl]methyl}amino)pyrrolidin-2-one]	24.8 nM			
CCOCc1c(-c2cc3cc(C)cc(OC)c3s2)c2c(N)ncnn2c1CN1CCNC(=O)C1 [Example 6, 4-{[4-Amino-6-(ethoxymethyl)-5-(7-methoxy-5-methyl-1-benzothiophen-2-yl)pyrrolo-[2,1-f][1,2,4]triazin-7-yl]methyl}piperazin-2-one dihydrochloride]			28.5 nM	
CCOCc1c(-c2cc3cc(C)cc(OC)c3s2)c2c(N)ncnn2c1CN1CCNC1=O [Example 87, 1-{[4-Amino-6-(ethoxymethyl)-5-(7-methoxy-5-methyl-1-benzothiophen-2-yl)pyrrolo[2,1-f]-[1,2,4]triazin-7-yl]methyl}imidazolidin-2-one]		14.1 nM		
CCOCc1c(-c2cc3cc(C)cc(OC)c3s2)c2c(N)ncnn2c1C(=O)N1CCCCO1 [Example 112]		42.1 nM		

Second part, led by results:

IC50 (human FGFR-3; [1])	IC50 (human FGFR-1)	Structure (SMILES)	IC50 (human FGFR-3; [2])	IC50 (human FGFR-3; [3])
6.8 nM	11.2 nM	COc1cc(C)cc2cc(-c3c(CNCC(C)(C)O)c(CN4CCOCC4)n4ncnc(N)c34)sc12 [Example 54, 1-({[4-Amino-5-(7-methoxy-5-methyl-1-benzothiophen-2-yl)-7-(morpholin-4-ylmethyl)pyrrolo-[2,1-f][1,2,4]triazin-6-yl]methyl}amino)-2-methylpropan-2-ol]		
2 nM	1.7 nM	COc1cc(C)cc2cc(-c3c(CNCC(C)(C)O)c(C)n4ncnc(N)c34)sc12 [Example 78, 1-({[4-Amino-5-(7-methoxy-5-methyl-1-benzothiophen-2-yl)-7-methylpyrrolo[2,1-f][1,2,4]triazin-6-yl]methyl}amino)-2-methylpropan-2-ol]		
3.1 nM	5.6 nM	COc1cc(C)cc2cc(-c3c(CNC(C)=O)c(CN4CCN(C=O)CC4)n4ncnc(N)c34)sc12 [Example 65, N-({4-Amino-7-[(4-formylpiperazin-1-yl)methyl]-5-(7-methoxy-5-methyl-1-benzothiophen-2-yl)pyrrolo[2,1-f][1,2,4]triazin-6-yl}methyl)acetamide formiate]		
1.4 nM	4 nM	COc1cc(C)cc2cc(-c3c(CN4CCNC(=O)C4)c(C(C)(C)O)n4ncnc(N)c34)sc12 [Example 74, 4-{[4-Amino-7-(2-hydroxypropan-2-yl)-5-(7-methoxy-5-methyl-1-benzothiophen-2-yl)pyrrolo-[2,1-f][1,2,4]triazin-6-yl]methyl}piperazin-2-one]		
9.6 nM	11.2 nM	CCOCc1c(-c2cc3cc(C)cc(OC)c3s2)c2c(N)ncnn2c1C(=O)N(C)C [Example 114]		
7.1 nM	6.4 nM	CCOCc1c(-c2cc3cc(C)cc(OC)c3s2)c2c(N)ncnn2c1C(=O)N[C@@H]1CCNC1=O [Example 106, 4-Amino-6-(ethoxymethyl)-5-(7-methoxy-5-methyl-1-benzothiophen-2-yl)-N-[(3R)-2-oxopyrrolidin-3-yl]pyrrolo[2,1-f][1,2,4]triazine-7-carboxamide]		
1.4 nM	2.8 nM	COc1cc(C)cc2cc(-c3c(CN4CCNC(=O)C4)c(C)n4ncnc(N)c34)sc12 [Example 76, 4-{[4-Amino-5-(7-methoxy-5-methyl-1-benzothiophen-2-yl)-7-methylpyrrolo[2,1-f][1,2,4]triazin-6-yl]methyl}piperazin-2-one]		
0.5 nM	1.9 nM	COc1cc(C)cc2cc(-c3c(CNCC(C)(C)O)c(Cl)n4ncnc(N)c34)sc12 [Example 81, 1-({[4-Amino-7-chloro-5-(7-methoxy-5-methyl-1-benzothiophen-2-yl)pyrrolo[2,1-f][1,2,4]triazin-6-yl]methyl}amino)-2-methylpropan-2-ol formiate]		
1 nM	1 nM	CCOCc1c(-c2cc3cc(C)cc(OC)c3s2)c2c(N)ncnn2c1CN1CC[C@](C)(N)C1 [Example 15, 7-{[(3S)-3-Amino-3-methylpyrrolidin-1-yl]methyl}-6-(ethoxymethyl)-5-(7-methoxy-5-methyl-1-benzothiophen-2-yl)pyrrolo[2,1-f][1,2,4]triazin-4-amine]		
31.1 nM	52.9 nM	CCOCc1c(-c2cc3cc(C)cc(OC)c3s2)c2c(N)ncnn2c1C(O)C1CC1 (stereo not shown) [Example 91, [4-Amino-6-(ethoxymethyl)-5-(7-methoxy-5-methyl-1-benzothiophen-2-yl)pyrrolo[2,1-f][1,2,4]-triazin-7-yl](cyclopropyl)methanol]		
3.8 nM	1.4 nM	COc1cc(C)cc2cc(-c3c(CNCC(C)(C)O)c(C)n4ncnc(N)c34)sc12 [Example 77, 1-({[4-Amino-5-(7-methoxy-5-methyl-1-benzothiophen-2-yl)-7-methylpyrrolo[2,1-f][1,2,4]triazin-6-yl]methyl}amino)-2-methylpropan-2-ol formiate]		

— patent US9206184B2, “Disubstituted benzothienyl-pyrrolotriazines and uses thereof” (BAYER INTELLECTUAL PROPERTY GmbH, priority 2011, dated 2015)
